Assay results published in US20190262453A1, “DESIGN AND COMPOSITION OF CELL-STABILIZED PHARMACEUTICAL FORMULATIONS” (THE REGENTS OF THE UNIVERSITY OF MICHIGAN, priority 2016, published 2019).
Counter-ions that a name gives are not always drawn.

Key:
RAW264.7 cells = experiment: Cell viability (XTT assay); assay type: cell-based; conditions: for cell viability: n=6
Experimental: Cell Viability. Viability of RAW264.7 cells were performed using Cell Proliferation Kit II (XTT) (Roche Applied Science, Mannheim, Germany, Cat. No. 11465015001) using the manufacturer's instructions. […] Post 24 hours exposure to CFZ, the cells were incubated with the yellow XTT solution (final concentration 0.3 mg/ml) for 4 h. […] An increase in number of living cells directly correlates to the amount of orange formazan formed, as monitored by the solution absorbance at 500 nm (Abs500). The following formula was used to determine viability of drug and inhibitor treated cells using untreated cells (blank) as a control—Cell Viability=(Abs500, treated—Abs700,treated)/(Abs500, blank—Abs700,blank).

[1] = pH-dependent solubility study of CFZ-HCl (Flynn approach); assay type: physicochemical
Experimental: Solubility Measurement Using the Flynn Approach. […] Mili-Q water (15 mL) was added to each vial ensuring that CFZ-HCl crystals were in great excess. Moreover, an appropriate amount of 0.1 M NaOH was added to each vial to set the initial equilibration pH measurements as follows: […] The set of sample containing vials was placed on a magnetic stirrer plate in a 25° C. water bath. […] The pH of the filtered sample was determine by Denver Instrument UltraBasic pH meter (Denver Instrument, Bohemia, N.Y.), after which the sample was subjected to HPLC analysis (Waters Alliance, Separations Module 2695) to determine the total solubility of the drug at the measured pH. […] The retention time for CFZ was determined to be at 4.75 min. […] Thus, in order to fit the experimental solubility-pH data curve of CFZ-HC, it was determined which one of the aforementioned solubility-pH relationships (equation 8 vs. equation 9) to use. […] Then, a value, say “y”, from the list of the computed [CFZH^+] values was set equal [CFZH+]S. By substituting “y' in place of [CFZH+]S, total solubility at the different pH values was calculated using the solubility-pH equation where the intrinsic salt is the primary solid species (equation 15). […]

[2] = in vivo; cited from earlier work

Compound: CO/C1=C\C(C)=C\[C@@H](C)[C@@H](O)[C@@H](C)C/C(C)=C/C=C/[C@H](OC)[C@@H]([C@@H](C)[C@@H](O)[C@H](C)[C@@]2(O)C[C@@H](O)[C@H](C)[C@@H](C(C)C)O2)OC1=O [BafA1, bafilomycin A1]
- cell viability (RAW264.7 cells; BafA1 alone at 6 nM): 65±25%
- cell viability (RAW264.7 cells; BafA1 alone at 8 nM): 33±6%

Compound: CC(C)/N=c1\cc2n(-c3ccc(Cl)cc3)c3ccccc3nc-2cc1Nc1ccc(Cl)cc1 [CFZ-HCl, Clofazimine Hydrochloride]
- solubility versus unprotonated CFZ free base ([1]; dissolved in pure water): greater solubility
- pHmax ([1]; from pH-solubility profile, 25° C.): 4.5±7.11×10^−15

Compound: CCC(C)n1ncn(-c2ccc(N3CCN(c4ccc(OCC5COC(Cn6cncn6)(c6ccc(Cl)cc6Cl)O5)cc4)CC3)cc2)c1=O (stereo not shown) [Itraconazole]
- Vd [2]: 10.7 L/kg

Compound: OC(c1cc(C(F)(F)F)nc2c(C(F)(F)F)cccc12)C1CCCCN1 (stereo not shown) [Mefloquine]
- Vd [2]: 19 L/kg

Compound: CC12CC3CC(C)(C1)CC(N)(C3)C2 [Memantine]
- Vd [2]: 10.9 L/kg

Compound: CCOC(=O)C1(c2ccccc2)CCN(C)CC1 [Meperidine]
- Vd [2]: 4.4 L/kg

Compound: CCN(CC)CCNC(=O)c1cc(Cl)c(N)cc1OC [Metoclopramide]
- Vd [2]: 3.4 L/kg

Compound: COCCc1ccc(OCC(O)CNC(C)C)cc1 (stereo not shown) [Metoprolol]
- Vd [2]: 4.2 L/kg

Compound: CN1CCN2c3ncccc3Cc3ccccc3C2C1 (stereo not shown) [Mirtazapine]
- Vd [2]: 4.5 L/kg

Compound: O=C1c2c(O)ccc(O)c2C(=O)c2c(NCCNCCO)ccc(NCCNCCO)c21 [Mitoxantrone]
- Vd [2]: 90 L/kg

Compound: COc1c(C)c2c(c(O)c1C/C=C(\C)CCC(=O)O)C(=O)OC2 [Mycophenolate]
- Vd [2]: 3.8 L/kg

Compound: O=C(O)c1cc([N+](=O)[O-])ccc1NCCCc1ccccc1 [NPPB]
- effect on cell viability (RAW264.7 cells): no significant effect

Compound: Cc1cn(-c2cc(NC(=O)c3ccc(C)c(Nc4nccc(-c5cccnc5)n4)c3)cc(C(F)(F)F)c2)cn1 [Nilotinib]
- Vd [2]: 3.0 L/kg

Compound: O=[N+]([O-])OCC(CO[N+](=O)[O-])O[N+](=O)[O-] [Nitroglycerin]
- Vd [2]: 3.3 L/kg

Compound: CNCCC=C1c2ccccc2CCc2ccccc21 [Nortriptyline]
- Vd [2]: 18 L/kg

Compound: Cc1nc2n(c(=O)c1CCN1CCC(c3noc4cc(F)ccc34)CC1)CCCC2O (stereo not shown) [Paliperidone]
- Vd [2]: 9.1 L/kg

Compound: Fc1ccc([C@@H]2CCNC[C@H]2COc2ccc3c(c2)OCO3)cc1 [Paroxetine]
- Vd [2]: 17 L/kg

Compound: CC[C@@H]([C@H](C)O)n1ncn(-c2ccc(N3CCN(c4ccc(OC[C@@H]5CO[C@@](Cn6cncn6)(c6ccc(F)cc6F)C5)cc4)CC3)cc2)c1=O [Posaconazole]
- Vd [2]: 11.9 L/kg

Compound: CCCN[C@H]1CCc2nc(N)sc2C1 [Pramipexole]
- Vd [2]: 7.3 L/kg

Compound: O=C(C1CCCCC1)N1CC(=O)N2CCc3ccccc3C2C1 (stereo not shown) [Praziquantel]
- Vd [2]: 9.55 L/kg

Compound: CC(CN1c2ccccc2Sc2ccccc21)N(C)C (stereo not shown) [Promethazine]
- Vd [2]: 13.4 L/kg

Compound: CC(C)NCC(O)COc1cccc2ccccc12 (stereo not shown) [Propranolol]
- Vd [2]: 4.3 L/kg

Compound: OCCOCCN1CCN(C2=Nc3ccccc3Sc3ccccc32)CC1 [Quetiapine]
- Vd [2]: 10 L/kg

Compound: O=C(c1ccc(OCCN2CCCCC2)cc1)c1c(-c2ccc(O)cc2)sc2cc(O)ccc12 [Raloxifene]
- Vd [2]: 2348 L/kg

Compound: CCCN(CCC)CCc1cccc2c1CC(=O)N2 [Ropinirole]
- Vd [2]: 7.5 L/kg

Compound: CO[C@H]1C[C@@H]2CC[C@@H](C)[C@@](O)(O2)C(=O)C(=O)N2CCCC[C@H]2C(=O)O[C@H]([C@H](C)C[C@@H]2CC[C@@H](O)[C@H](OC)C2)CC(=O)[C@H](C)/C=C(\C)[C@@H](O)[C@@H](OC)C(=O)[C@H](C)C[C@H](C)/C=C/C=C/C=C/1C [Sirolimus]
- Vd [2]: 12 L/kg

Compound: O=C(O[C@H]1CN2CCC1CC2)N1CCc2ccccc2[C@@H]1c1ccccc1 [Solifenacin]
- Vd [2]: 671 L/kg

Compound: CC(=O)S[C@@H]1CC2=CC(=O)CC[C@]2(C)[C@H]2CC[C@@]3(C)[C@@H](CC[C@@]34CCC(=O)O4)[C@H]12 [Spironolactone]
- Vd [2]: 10 L/kg

Compound: CCN(CC)CCNC(=O)c1c(C)[nH]c(/C=C2\C(=O)Nc3ccc(F)cc32)c1C [Sunitinib]
- Vd [2]: 4 L/kg

Compound: CC/C(=C(\c1ccccc1)c1ccc(OCCN(C)C)cc1)c1ccccc1 [Tamoxifen]
- Vd [2]: 55 L/kg

Compound: CO[C@H]1C[C@@H]2CC[C@@H](C)[C@@](O)(O2)C(=O)C(=O)N2CCCC[C@H]2C(=O)O[C@H]([C@H](C)C[C@@H]2CC[C@@H](OC(=O)C(C)(CO)CO)[C@H](OC)C2)CC(=O)[C@H](C)/C=C(\C)[C@@H](O)[C@@H](OC)C(=O)[C@H](C)C[C@H](C)/C=C/C=C/C=C/1C [Temsirolimus]
- Vd [2]: 3.3 L/kg

Compound: CN(C)c1cc(NC(=O)CNC(C)(C)C)c(O)c2c1C[C@H]1C[C@H]3[C@H](N(C)C)C(O)=C(C(N)=O)C(=O)[C@@]3(O)C(O)=C1C2=O [Tigecycline]
- Vd [2]: 7.2 L/kg

Compound: CN(C)CCOc1ccc(/C(=C(/CCCl)c2ccccc2)c2ccccc2)cc1 [Toremifene]
- Vd [2]: 48.38 L/kg

Compound: Nc1nc(N)c2nc(-c3ccccc3)c(N)nc2n1 [Triameterene]
- Vd [2]: 13.4 L/kg

Compound: c1cnc2cc3c(cc2n1)[C@@H]1CNC[C@H]3C1 [Varenicline]
- Vd [2]: 6.2 L/kg

Compound: CC[C@]1(O)C[C@H]2CN(CCc3c([nH]c4ccccc34)[C@@](C(=O)OC)(c3cc4c(cc3OC)N(C=O)[C@H]3[C@@](O)(C(=O)OC)[C@H](OC(C)=O)[C@]5(CC)C=CCN6CC[C@]43[C@@H]65)C2)C1 [Vincristine]
- Vd [2]: 9.79 L/kg

Compound: CCC1=C[C@@H]2CN(C1)Cc1c([nH]c3ccccc13)[C@@](C(=O)OC)(c1cc3c(cc1OC)N(C)[C@H]1[C@@](O)(C(=O)OC)[C@H](OC(C)=O)[C@]4(CC)C=CCN5CC[C@]31[C@@H]54)C2 [Vinorelbine]
- Vd [2]: 76 L/kg

Compound: Ivermectin
- Vd [2]: 9.91 L/kg
